Measured values: patent US20090047684A1, “Gene and protein expression profiles associated with the therapeutic efficacy of irinotecan” (Nuclea Biomarkers, LLC, priority 2006, published 2009)
Structures can show the parent of a compound that is named as a salt.

Test system: tumor cells derived from patients who were responsive to treatment with irinotecan
Assay: xenograft of patient-derived tumor cells in SCID mice treated with irinotecan
Type: in vivo
Conditions: SCID mice with established xenograft tumors, injected with 200 mg/kg of irinotecan
Procedure: Positive expression also was evaluated using a xenograft array. SCID mice were injected with tumor cells derived from patients who were responsive to treatment with irinotecan, and the tumors were allowed to grow in the mice. Once the tumors were established, the mice were injected with 200 mg/kg of irinotecan, and the mice were monitored to observe responsiveness to the drug. […] Prior to treatment with the drug, samples of the tumors were extracted from the mice and used to make a TMA.

CCc1c2c(nc3ccc(OC(=O)N4CCC(N5CCCCC5)CC4)cc13)-c1cc3c(c(=O)n1C2)COC(=O)[C@]3(O)CC [irinotecan, Irinotecan hydrochloride]
responsiveness to the drug: effect on tumors formed in the SCID mice: reduced or eliminated
